US20260128119A1, “SCREENING METHODS FOR ACINETOBACTER BAUMANNII SPOT ENZYME MODULATORS” (priority 2022, published 2026)

Legend:
SpoTAb^NTD = assay: Isothermal titration calorimetry (ITC) of ligand binding to SpoTAb^NTD; set-up: species or system Acinetobacter baumannii
Description: This is also the case with the specialisation of SpoTAb as a monofunctional hydrolase where the pseudo-SYNTH domain has evolved into a strictly regulatory/structural domain. […] These involve the residues that coordinate adenosine and guanosine (R249 to N241, R277 to E267 and Y329 to N304) and the majority of phosphate-coordinating groups. Crucially, the catalytic residues D272 and Q347 are substituted for S263 and T321, respectively. […]; Roghanian et al., Mol Cell, 2021).
To directly validate the lack of pppGpp-mediated regulation in SpoTAb, we characterised the interaction between pppGpp and SpoTAb^NTD by ITC. […] Following the experimental approach used earlier for SpoTEc (Roghanian et al., Mol Cell, 2021), we next grafted the allosteric site of A. baumannii RelA (^236RelA^246) onto SpoTAb^NTD (replacing ^201SpoTAb^211).
The essential role of the divalent manganese ion Mn^2+ in (p)ppGpp pyrophosphate hydrolysis is well documented for both Rel (Hogg et al., Cell, 2004; Takada et al., Nucleic Acids Res, 2021; Avarbock et al., Biochemistry, 2000; Van Nerom et al., Acta Crystallogr F Struct Biol Commun, 2019) and SpoTEc (Heinemeyer et al., Eur J Biochem, 1978).

SpoTAb = assay: HD (ppGpp hydrolysis) activity of SpoTAb in presence of added factors; assay type: biochemical, Acinetobacter baumannii; conditions: metal-free full-length SpoTAb (completely HD inactive)
Description: FIG. 1. Full-length monomeric A. baumannii SpoT adopts a compact “mushroom”-shaped HD-active τ-state. (a) Structure of “mushroom”-shaped SpoTAb-ppGpp complex in the τ-state. The domain organization, from N to C terminus: NTD domains hydrolase (HD), pseudo-synthetase (pseudo-SYNTH) and Core, and CTD domains, TGS, Helical (HEL), Zn-finger (ZFD) and RNA recognition motif (RRM). The ppGpp alarmone is labelled. (b) Cartoon representation the SpoTAb. The “stem” of the mushroom is formed by the enzymatic HD domain and the “cap” by the regulatory domains: NTD pseudo-SYNTH domain and the CTD domains. (c) Ribbon representation of the SpoTAb-ppGpp complex. The α6/α7 motif is held in the hydrolysis-compatible position by the folded Core domain and the TGS β-hairpin, with the Core domain communicating allosteric signals to HD from the regulatory domains. […] (e) Analytical size exclusion chromatography (SEC) of SpoTAb supports its monomeric nature in solution. (f) Experimental X-ray scattering (SAXS) analysis of SpoTAb at 8 mg/mL further confirms the monomeric nature of SpoTAb. […] (g) Ab initio envelope of SpoTAb reconstructed from the experimental SAXS data superimposed on the crystal structure.
While the SYNTH and TGS domains are sequestered in the “cap”, the HD hydrolase stands out unconfined and primed for (p)ppGpp hydrolysis. […]

[1] = molecular target: the molecule itself; assay: SEC-SAXS and analytical size exclusion chromatography in solution (oligomeric state, self-association)

Nc1nc2c(ncn2C2OC(COP(=O)(O)OP(=O)(O)OP(=O)(O)O)C(OP(=O)(O)OP(=O)(O)O)C2O)c(=O)[nH]1 (stereo not shown) [pppGpp, guanosine pentaphosphate]
allosteric binding of pppGpp (SpoTAb^NTD): does not bind

[Mn+2] [Mn^2+]
HD activity upon addition to metal-free enzyme (SpoTAb): readily restored

Nc1nc2c(ncn2[C@@H]2O[C@H](COP(=O)(O)OP(=O)(O)O)[C@@H](O)[C@H]2O)c(=O)[nH]1 [GDP]
GDP binding by SpoTAb (SpoTAb^NTD): does not bind

B1: Acinetobacter baumannii SpoT enzyme (enzyme)
chain: MPGEEVSQAKQQLKLIIDPYLSVSEVEKVLAACDFGDLAHTGITRKSGEPYILHPIAVSCILANMRLDPETLMAALLHDVIEDTQYTKDDIIERFGQTVAELVDGVTKLSQSSDKEYNKAASFRKILQATLQDPRVIIIKLADRYHNMTTLGALRPDKRARIAQETFDIFVPMARLVGMNEMADNLENLCYQNLDLDMFDNVQNALLQTKPERCKYQSIWEQNLAELLHNYHIQGRIKKKNNNIELLRHFVKNEMDLQELTHSHAFEIVLQSIADCDRLVAALKENFQVIQYQDHIRRPLPGGNQSLMIKLKGEKTTLSLTIQTELMRKAARFGVVLGENAPQTCRSAIQASMQNLNTLIDGECAKTTFNDLLDYLHQEKIWVYTPHGQLHELPQGATVVDFAYSASLFLGNHAVGAKVDGEIKPLSTPLVSGQVIEIITDVLATPNPDWLSFINTQKARRALQHVLKDQDIEEQRLVGAQALSRALKLFNRSINDLSDADWLDLLQWRHIDNKDALFEQIAVGDLLPQLVANHLFANDKHPRAENSDRLIQGTEGIDVKYAHCCNPILGDPIQGHLTRRGLIVHRIRCHNLLHEQHLHPENIMPLQWKADDVDDVRFTAYLAIYMAMNDEQVSDLIYQCRKNNAGVEMVHSNEQRTFVNIVVNNRKHIAKVIRDLRMHYGFPRIERLDAPAPQMEISKVS
notes: Full-length wild-type SpoTAb; also called SpoTAb; A. baumannii SpoT
binding result [1]: no binding (tested: 8 mg/mL)
